Results: PubChem BioAssay AID1963845 (Molecular Pharmacology Branch, DTP, NCI, 2024)
pIC50: −log10 of the molar value.

Test system: 429239-143-T-J1-PDC complex spheroid viability
Assay: Anticancer human tumor 429239-143-T-J1-PDC patient-derived small cell lung carcinoma cell line growth inhibition [POLQ]
Conditions: for pIC50: curve of first compound; for viability, T/C: stronger effect = lower value
Procedure, shortened: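 PDC + HUVEC + MSC complex spheroids; POLQ inhibitors ± partner drugs; top conc. at/near clinical Cmax, else 10 microM (SN-38 1 microM), half-log dilutions; 37 degrees C, 5% CO2.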

[1] = second compound 0.0316 µM, first compound 0.0316 µM
[2] = second compound 0.0316 µM, first compound 0.1 µM
[3] = second compound 0.0316 µM, first compound 0.316 µM
[4] = second compound 0.0316 µM, first compound 1 µM
[5] = second compound 0.0316 µM, first compound 3.16 µM
[6] = second compound 0.0316 µM, first compound 10 µM
[7] = second compound 0.1 µM, first compound 0.0316 µM
[8] = second compound 0.1 µM, first compound 0.1 µM
[9] = second compound 0.1 µM, first compound 0.316 µM
[10] = second compound 0.1 µM, first compound 1 µM
[11] = second compound 0.1 µM, first compound 3.16 µM
[12] = second compound 0.1 µM, first compound 10 µM
[13] = second compound 0.316 µM, first compound 0.0316 µM
[14] = second compound 0.316 µM, first compound 0.1 µM
[15] = second compound 0.316 µM, first compound 0.316 µM
[16] = second compound 0.316 µM, first compound 1 µM
[17] = second compound 0.316 µM, first compound 3.16 µM
[18] = second compound 0.316 µM, first compound 10 µM
[19] = second compound 1 µM, first compound 0.0316 µM
[20] = second compound 1 µM, first compound 0.1 µM
[21] = second compound 1 µM, first compound 0.316 µM
[22] = second compound 1 µM, first compound 1 µM
[23] = second compound 1 µM, first compound 3.16 µM
[24] = second compound 1 µM, first compound 10 µM
[25] = second compound 3.16 µM, first compound 0.0316 µM
[26] = second compound 3.16 µM, first compound 0.1 µM
[27] = second compound 3.16 µM, first compound 0.316 µM
[28] = second compound 3.16 µM, first compound 1 µM
[29] = second compound 3.16 µM, first compound 3.16 µM
[30] = second compound 3.16 µM, first compound 10 µM
[31] = second compound 10 µM, first compound 0.0316 µM
[32] = second compound 10 µM, first compound 0.1 µM
[33] = second compound 10 µM, first compound 0.316 µM
[34] = second compound 10 µM, first compound 1 µM
[35] = second compound 10 µM, first compound 3.16 µM
[36] = second compound 10 µM, first compound 10 µM
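Further: luminescence signal used as surrogate measure of viable cells; spheroids exposed to compounds for seven days before readout.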
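Wherever viability, T/C is given: 100% = DMSO vehicle control viability as luminescence relative to vehicle.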

**Q.** How did the pIC50 (second compound 0.0316 µM) turn out when `CC(=O)O[C@H]1C(=O)[C@@]2(C)[C@H]([C@H](OC(=O)c3ccccc3)[C@]3(O)C[C@H](OC(=O)[C@H](O)[C@@H](NC(=O)c4ccccc4)c4ccccc4)C(C)=C1C3(C)C)[C@]1(OC(C)=O)CO[C@@H]1C[C@@H]2O` + COC1C(OC(N)=O)C(O)C(Oc2ccc3c(O)c(NC(=O)c4ccc(O)c(CC=C(C)C)c4)c(=O)oc3c2C)OC1(C)C was run?
**A.** > 8.02

**Q.** And the pIC50 (second compound 0.1 µM)?
**A.** > 8.02

**Q.** What about the pIC50 (second compound 0.316 µM) of the same molecule?
**A.** > 8.02

**Q.** And the pIC50 (second compound 1 µM)?
**A.** > 8.02

**Q.** What about the pIC50 (second compound 3.16 µM) of the same molecule?
**A.** > 8.02

**Q.** And the pIC50 (second compound 10 µM)?
**A.** > 8.02

**Q.** And the viability, T/C (second compound 0.0316 µM, first compound 0.00949 µM)?
**A.** 12.5%

**Q.** And the viability, T/C (second compound 0.0316 µM, first compound 0.03 µM)?
**A.** 12.8%

**Q.** What about the viability, T/C (second compound 0.0316 µM, first compound 0.0949 µM) of the same molecule?
**A.** 10.9%

**Q.** And the viability, T/C (second compound 0.0316 µM, first compound 0.3 µM)?
**A.** 13.6%

**Q.** And the viability, T/C (second compound 0.0316 µM, first compound 0.949 µM)?
**A.** 11.8%

**Q.** What about the viability, T/C (second compound 0.0316 µM, first compound 3 µM) of the same molecule?
**A.** 13.3%

**Q.** What about the viability, T/C (second compound 0.1 µM, first compound 0.00949 µM) of the same molecule?
**A.** 14.8%

**Q.** And the viability, T/C (second compound 0.1 µM, first compound 0.03 µM)?
**A.** 13.2%

**Q.** What about the viability, T/C (second compound 0.1 µM, first compound 0.0949 µM) of the same molecule?
**A.** 13.4%

**Q.** And the viability, T/C (second compound 0.1 µM, first compound 0.3 µM)?
**A.** 11.5%

**Q.** What about the viability, T/C (second compound 0.1 µM, first compound 0.949 µM) of the same molecule?
**A.** 12.4%

**Q.** And the viability, T/C (second compound 0.1 µM, first compound 3 µM)?
**A.** 14.3%

**Q.** And the viability, T/C (second compound 0.316 µM, first compound 0.00949 µM)?
**A.** 13.8%

**Q.** And the viability, T/C (second compound 0.316 µM, first compound 0.03 µM)?
**A.** 11.2%

**Q.** What about the viability, T/C (second compound 0.316 µM, first compound 0.0949 µM) of the same molecule?
**A.** 11.2%

**Q.** And the viability, T/C (second compound 0.316 µM, first compound 0.3 µM)?
**A.** 11.3%

**Q.** What about the viability, T/C (second compound 0.316 µM, first compound 0.949 µM) of the same molecule?
**A.** 12.4%

**Q.** And the viability, T/C (second compound 0.316 µM, first compound 3 µM)?
**A.** 12.2%

**Q.** And the viability, T/C (second compound 1 µM, first compound 0.00949 µM)?
**A.** 12.5%

**Q.** What about the viability, T/C (second compound 1 µM, first compound 0.03 µM) of the same molecule?
**A.** 12.4%

**Q.** And the viability, T/C (second compound 1 µM, first compound 0.0949 µM)?
**A.** 12.6%

**Q.** What about the viability, T/C (second compound 1 µM, first compound 0.3 µM) of the same molecule?
**A.** 11.6%

**Q.** And the viability, T/C (second compound 1 µM, first compound 0.949 µM)?
**A.** 14.2%

**Q.** What about the viability, T/C (second compound 1 µM, first compound 3 µM) of the same molecule?
**A.** 13.9%

**Q.** And the viability, T/C (second compound 3.16 µM, first compound 0.00949 µM)?
**A.** 15.9%

**Q.** What about the viability, T/C (second compound 3.16 µM, first compound 0.03 µM) of the same molecule?
**A.** 12.6%

**Q.** What about the viability, T/C (second compound 3.16 µM, first compound 0.0949 µM) of the same molecule?
**A.** 12%

**Q.** And the viability, T/C (second compound 3.16 µM, first compound 0.3 µM)?
**A.** 11.3%

**Q.** What about the viability, T/C (second compound 3.16 µM, first compound 0.949 µM) of the same molecule?
**A.** 15.8%

**Q.** What about the viability, T/C (second compound 3.16 µM, first compound 3 µM) of the same molecule?
**A.** 13.8%

**Q.** And the viability, T/C (second compound 10 µM, first compound 0.00949 µM)?
**A.** 14.8%

**Q.** What about the viability, T/C (second compound 10 µM, first compound 0.03 µM) of the same molecule?
**A.** 12.8%

**Q.** And the viability, T/C (second compound 10 µM, first compound 0.0949 µM)?
**A.** 12.1%

**Q.** What about the viability, T/C (second compound 10 µM, first compound 0.3 µM) of the same molecule?
**A.** 12.8%

**Q.** And the viability, T/C (second compound 10 µM, first compound 0.949 µM)?
**A.** 12.6%

**Q.** And the viability, T/C (second compound 10 µM, first compound 3 µM)?
**A.** 13.3%

**Q.** How did the pIC50 (second compound 0.0316 µM) turn out when `CC1COCCN1c1cc(C2(S(C)(=N)=O)CC2)nc(-c2ccnc3[nH]ccc23)n1` (stereo unspecified) + Cc1cccc(N(C)C(=O)C2C(O)CCN2c2nc(C)cc(C(F)(F)F)c2C#N)c1 was run?
**A.** 5.66

**Q.** What about the pIC50 (second compound 0.1 µM) of the same molecule?
**A.** 5.68

**Q.** And the pIC50 (second compound 0.316 µM)?
**A.** 5.69

**Q.** What about the pIC50 (second compound 1 µM) of the same molecule?
**A.** 5.68

**Q.** And the pIC50 (second compound 3.16 µM)?
**A.** 5.63

**Q.** And the pIC50 (second compound 10 µM)?
**A.** 5.62

**Q.** What about the viability, T/C [1] of the same molecule?
**A.** 108%

**Q.** What about the viability, T/C [2] of the same molecule?
**A.** 105%

**Q.** And the viability, T/C [3]?
**A.** 92.9%

**Q.** And the viability, T/C [4]?
**A.** 77.3%

**Q.** And the viability, T/C [5]?
**A.** 37.2%

**Q.** What about the viability, T/C [6] of the same molecule?
**A.** 15.9%

**Q.** What about the viability, T/C [7] of the same molecule?
**A.** 105%

**Q.** What about the viability, T/C [8] of the same molecule?
**A.** 106%

**Q.** What about the viability, T/C [9] of the same molecule?
**A.** 96.7%

**Q.** And the viability, T/C [10]?
**A.** 72.9%

**Q.** What about the viability, T/C [11] of the same molecule?
**A.** 37.6%

**Q.** What about the viability, T/C [12] of the same molecule?
**A.** 16%

**Q.** What about the viability, T/C [13] of the same molecule?
**A.** 101%

**Q.** And the viability, T/C [14]?
**A.** 99.6%

**Q.** What about the viability, T/C [15] of the same molecule?
**A.** 97.2%

**Q.** And the viability, T/C [16]?
**A.** 73.6%

**Q.** And the viability, T/C [17]?
**A.** 34.9%

**Q.** What about the viability, T/C [18] of the same molecule?
**A.** 17.3%

**Q.** And the viability, T/C [19]?
**A.** 91.2%

**Q.** And the viability, T/C [20]?
**A.** 98.9%

**Q.** What about the viability, T/C [21] of the same molecule?
**A.** 89.7%

**Q.** What about the viability, T/C [22] of the same molecule?
**A.** 75.7%

**Q.** And the viability, T/C [23]?
**A.** 35.8%

**Q.** What about the viability, T/C [24] of the same molecule?
**A.** 17.7%

**Q.** And the viability, T/C [25]?
**A.** 96.9%

**Q.** And the viability, T/C [26]?
**A.** 97.6%

**Q.** And the viability, T/C [27]?
**A.** 94.5%

**Q.** And the viability, T/C [28]?
**A.** 71.3%

**Q.** What about the viability, T/C [29] of the same molecule?
**A.** 42.6%

**Q.** What about the viability, T/C [30] of the same molecule?
**A.** 18.3%

**Q.** What about the viability, T/C [31] of the same molecule?
**A.** 105%

**Q.** And the viability, T/C [32]?
**A.** 103%

**Q.** What about the viability, T/C [33] of the same molecule?
**A.** 98.4%

**Q.** And the viability, T/C [34]?
**A.** 60.2%

**Q.** And the viability, T/C [35]?
**A.** 50.3%

**Q.** What about the viability, T/C [36] of the same molecule?
**A.** 17.8%

**Q.** What does the source list for `O=c1[nH]cc(F)c(=O)[nH]1` + COC1C(OC(N)=O)C(O)C(Oc2ccc3c(O)c(NC(=O)c4ccc(O)c(CC=C(C)C)c4)c(=O)oc3c2C)OC1(C)C?
**A.** pIC50 (second compound 0.0316 µM): 5.02; pIC50 (second compound 0.1 µM): 5.14; pIC50 (second compound 0.316 µM): 5.22; pIC50 (second compound 1 µM): 5.04; pIC50 (second compound 3.16 µM): 5.10; pIC50 (second compound 10 µM): 5.18; viability, T/C [1]: 114%; viability, T/C [2]: 111%; viability, T/C [3]: 108%; viability, T/C [4]: 84.5%; viability, T/C [5]: 61.6%; viability, T/C [6]: 49%; viability, T/C [7]: 116%; viability, T/C [8]: 111%; viability, T/C [9]: 105%; viability, T/C [10]: 96.1%; viability, T/C [11]: 57%; viability, T/C [12]: 47.6%; viability, T/C [13]: 96.7%; viability, T/C [14]: 98%; viability, T/C [15]: 97%; viability, T/C [16]: 78.1%; viability, T/C [17]: 62.9%; viability, T/C [18]: 40.9%; viability, T/C [19]: 86.1%; viability, T/C [20]: 104%; viability, T/C [21]: 96.4%; viability, T/C [22]: 82.3%; viability, T/C [23]: 70.5%; viability, T/C [24]: 47.9%; viability, T/C [25]: 99.2%; viability, T/C [26]: 98.8%; viability, T/C [27]: 93%; viability, T/C [28]: 84.1%; viability, T/C [29]: 75.9%; viability, T/C [30]: 43.4%; viability, T/C [31]: 89%; viability, T/C [32]: 97.6%; viability, T/C [33]: 93.8%; viability, T/C [34]: 85.4%; viability, T/C [35]: 57.7%; viability, T/C [36]: 45.8%
